# From patent US9204653B2, “5-fluoro pyrimidine derivatives” (DOW AGROSCIENCES LLC, priority 2008, dated 2015)
# Like-named read-outs stand apart in the source and are kept apart here.
# System: Mycosphaerella graminicola; Anamorph: Septoria tritici; Bayer Code SEPTTR
# Assay: Leaf blotch of wheat, foliar fungicide treatment, one day protectant (1DP) or three day curative (3DC)
# Type: in vivo, Septoria tritici on wheat plants (variety Yuma)
# Settings: Zymoseptoria tritici, percent disease control rating
# [1] = 24 h, one day protectant (1DP), read-out: SETTTR 1DP 25 ppm
# [2] = 24 h, one day protectant (1DP), read-out: SEPTTR 1DP 100 ppm
# [3] = 72 h, three day curative (3DC), read-out: SEPTTR 3DC 25 ppm
# [4] = 72 h, three day curative (3DC), read-out: SEPTTR 3DC 100 ppm
compound,measurement,setting,value
Fc1cnc(OCc2ccccc2)nc1N/N=C/C1CC1 [Compound 105],pest or weed control at 25 ppm,[1],0 to 25%
same,pest or weed control at 100 ppm,[2],0 to 25%
same,pest or weed control at 25 ppm,[3],0 to 25%
same,pest or weed control at 100 ppm,[4],0 to 25%
Nc1nc(OCCCC2CCCC2)ncc1F [Compound 106],pest or weed control at 25 ppm,[1],0 to 25%
same,pest or weed control at 100 ppm,[2],0 to 25%
same,pest or weed control at 25 ppm,[3],0 to 25%
same,pest or weed control at 100 ppm,[4],26 to 50%
CC(=O)Nc1nc(OCc2cccc(F)c2)ncc1F [Compound 107],pest or weed control at 25 ppm,[1],76 to 100%
same,pest or weed control at 100 ppm,[2],76 to 100%
same,pest or weed control at 25 ppm,[3],76 to 100%
same,pest or weed control at 100 ppm,[4],76 to 100%
Cn1ccc(COc2ncc(F)c(/N=C/N3CCOCC3)n2)n1 [Compound 108],pest or weed control at 25 ppm,[1],76 to 100%
same,pest or weed control at 100 ppm,[2],76 to 100%
same,pest or weed control at 25 ppm,[3],76 to 100%
same,pest or weed control at 100 ppm,[4],76 to 100%
COc1cccc(COc2ncc(F)c(N(N)C3CCCCC3)n2)c1 [Compound 111],pest or weed control at 25 ppm,[1],0 to 25%
same,pest or weed control at 100 ppm,[2],0 to 25%
same,pest or weed control at 25 ppm,[3],0 to 25%
same,pest or weed control at 100 ppm,[4],0 to 25%
CN(C)/C=N/c1nc(OC(=O)OCc2ccccc2)ncc1F [Compound 112],pest or weed control at 25 ppm,[1],76 to 100%
same,pest or weed control at 100 ppm,[2],76 to 100%
same,pest or weed control at 25 ppm,[3],76 to 100%
same,pest or weed control at 100 ppm,[4],76 to 100%
COc1ccc(Oc2ncc(F)c(NCO)n2)cc1 [Compound 113],pest or weed control at 25 ppm,[1],51 to 75%
same,pest or weed control at 100 ppm,[2],76 to 100%
same,pest or weed control at 25 ppm,[3],0 to 25%
same,pest or weed control at 100 ppm,[4],26 to 50%
CCCNC(=O)Nc1nc(OCc2ccn(C)n2)ncc1F [Compound 114],pest or weed control at 25 ppm,[1],0 to 25%
same,pest or weed control at 100 ppm,[2],0 to 25%
same,pest or weed control at 25 ppm,[3],0 to 25%
same,pest or weed control at 100 ppm,[4],0 to 25%
Fc1cnc(OCc2ccccc2)nc1-n1ccnc1 [Compound 115],pest or weed control at 25 ppm,[1],76 to 100%
same,pest or weed control at 100 ppm,[2],76 to 100%
same,pest or weed control at 25 ppm,[3],76 to 100%
same,pest or weed control at 100 ppm,[4],76 to 100%
O=C(NCc1ccccc1F)Nc1nc(OCc2cccs2)ncc1F [Compound 116],pest or weed control at 25 ppm,[1],0 to 25%
same,pest or weed control at 100 ppm,[2],0 to 25%
same,pest or weed control at 25 ppm,[3],0 to 25%
same,pest or weed control at 100 ppm,[4],0 to 25%
O=[N+]([O-])c1ccccc1SNc1nc(OCc2cccc(F)c2)ncc1F [Compound 117],pest or weed control at 25 ppm,[1],26 to 50%
same,pest or weed control at 100 ppm,[2],51 to 75%
same,pest or weed control at 25 ppm,[3],26 to 50%
same,pest or weed control at 100 ppm,[4],26 to 50%
CCCNC(=S)Nc1nc(OCc2cccc(OC)c2)ncc1F [Compound 119],pest or weed control at 25 ppm,[1],26 to 50%
same,pest or weed control at 100 ppm,[2],76 to 100%
same,pest or weed control at 25 ppm,[3],51 to 75%
same,pest or weed control at 100 ppm,[4],76 to 100%
Nc1nc(OCc2cccc3ccccc23)ncc1F [Compound 120],pest or weed control at 25 ppm,[1],76 to 100%
same,pest or weed control at 100 ppm,[2],76 to 100%
same,pest or weed control at 25 ppm,[3],76 to 100%
same,pest or weed control at 100 ppm,[4],76 to 100%
CC(Oc1ncc(F)c(NSc2ccccc2[N+](=O)[O-])n1)c1ccc(F)cc1 (stereo not shown) [Compound 126],pest or weed control at 25 ppm,[1],76 to 100%
same,pest or weed control at 100 ppm,[2],76 to 100%
same,pest or weed control at 25 ppm,[3],76 to 100%
same,pest or weed control at 100 ppm,[4],76 to 100%
Nc1nc(OCCc2cccc(C(F)(F)F)c2)ncc1F [Compound 129],pest or weed control at 25 ppm,[1],26 to 50%
same,pest or weed control at 100 ppm,[2],76 to 100%
same,pest or weed control at 25 ppm,[3],76 to 100%
same,pest or weed control at 100 ppm,[4],76 to 100%
CN(C)/C=N/c1nc(OC(=O)C(C)(C)C)ncc1F [Compound 130],pest or weed control at 25 ppm,[1],76 to 100%
same,pest or weed control at 100 ppm,[2],76 to 100%
same,pest or weed control at 25 ppm,[3],76 to 100%
same,pest or weed control at 100 ppm,[4],76 to 100%
CN(C)/C=N/c1nc(OS(C)(=O)=O)ncc1F [Compound 131],pest or weed control at 25 ppm,[1],26 to 50%
same,pest or weed control at 100 ppm,[2],51 to 75%
same,pest or weed control at 25 ppm,[3],26 to 50%
same,pest or weed control at 100 ppm,[4],76 to 100%
Cc1nn(C)c2sc(COc3ncc(F)c(N)n3)cc12 [Compound 132],pest or weed control at 25 ppm,[1],76 to 100%
same,pest or weed control at 100 ppm,[2],76 to 100%
same,pest or weed control at 25 ppm,[3],76 to 100%
same,pest or weed control at 100 ppm,[4],76 to 100%
Nc1nc(OCc2cccc(CO)c2)ncc1F [Compound 133],pest or weed control at 25 ppm,[1],51 to 75%
same,pest or weed control at 100 ppm,[2],76 to 100%
same,pest or weed control at 25 ppm,[3],51 to 75%
same,pest or weed control at 100 ppm,[4],76 to 100%
CCOC(=O)COC(=O)Nc1nc(OCc2ccccc2)ncc1F [Compound 134],pest or weed control at 25 ppm,[1],0 to 25%
same,pest or weed control at 100 ppm,[2],51 to 75%
same,pest or weed control at 25 ppm,[3],51 to 75%
same,pest or weed control at 100 ppm,[4],76 to 100%
Nc1nc(OCc2ccc(OC(F)F)cc2)ncc1F [Compound 136],pest or weed control at 25 ppm,[1],76 to 100%
same,pest or weed control at 100 ppm,[2],76 to 100%
same,pest or weed control at 25 ppm,[3],76 to 100%
same,pest or weed control at 100 ppm,[4],76 to 100%
ONc1nc(OCc2ccc(F)cc2)ncc1F [Compound 138],pest or weed control at 25 ppm,[1],76 to 100%
same,pest or weed control at 100 ppm,[2],76 to 100%
same,pest or weed control at 25 ppm,[3],76 to 100%
same,pest or weed control at 100 ppm,[4],76 to 100%
